Patent publication US9757320B2, “Oral care composition” (Colgate-Palmolive Company, priority 2012, dated 2017)

Key:
[1] = tested on: A. viscuosus; assay: Minimum inhibitory concentration test: optical density at 610 nm of A. viscuosus in tryptic soy broth, 96 well plate; assay type: cell-based; conditions: 37° C. for 18 hours
Procedure: Stock solutions of the zinc ascorbyl phosphate of Example 1, ascorbyl phosphate, zinc oxide, and the zinc-lysine complex were each prepared in water. The concentration of active ingredient in each solution was 0.1 M. Aliquots of each test solution (200 μL) were placed in the first row of a 96 well plate. Serial dilutions of the stock solutions were prepared on the plate by mixing the stock solutions with tryptic soy broth on a 1:1 basis. The concentrations of active ingredient prepared on this basis varied from 50 mM to 0.00488 mM.
A solution of A. viscuosus with an optical density of 0.2 at 610 nm was prepared. Aliquots of the A. viscuosus solution (100 μL) were then added to each test well. Four control wells containing TSB buffer and A. viscuosus solution were prepared. Four blank wells containing TSB buffer alone were also prepared.
The plate was then incubated at 37° C. for 18 hours. The optical density of each well at 610 nm was then recorded using a plate reader.

[2] = cited from earlier work
[3] = 50 mM active ingredient, lower reading = improved antibacterial effect

## CCCCCCCCCCCCCCCC(=O)OC[C@H](O)[C@H]1OC(=O)C(O)=C1O [Ascorbyl Palmitate]
[1]; 0.005 mM active ingredient
  optical density reading: 0.70
[1]; 0.00977 mM active ingredient
  optical density reading: 0.71
[1]; 0.195 mM active ingredient
  optical density reading: 0.71
[1]; 0.391 mM active ingredient
  optical density reading: 0.69
[1]; 0.781 mM active ingredient
  optical density reading: 0.70
[1]; 1.563 mM active ingredient
  optical density reading: 0.70
[1]; 3.125 mM active ingredient
  optical density reading: 0.68
[1]; 6.25 mM active ingredient
  optical density reading: 0.69
[1]; 12.5 mM active ingredient
  optical density reading: 0.72
[1]; 25 mM active ingredient
  optical density reading: 0.68
[1]; [3]
  optical density reading: 0.64

## [O]=[Zn] [Zinc Oxide, zinc oxide]
[1]; 0.005 mM active ingredient
  optical density reading: 0.68
[1]; 0.00977 mM active ingredient
  optical density reading: 0.68
[1]; 0.195 mM active ingredient
  optical density reading: 0.67
[1]; 0.391 mM active ingredient
  optical density reading: 0.66
[1]; 0.781 mM active ingredient
  optical density reading: 0.60
[1]; 1.563 mM active ingredient
  optical density reading: 0.45
[1]; 3.125 mM active ingredient
  optical density reading: 0.33
[1]; 6.25 mM active ingredient
  optical density reading: 0.29
[1]; 12.5 mM active ingredient
  optical density reading: 0.40
[1]; 25 mM active ingredient
  optical density reading: 0.65
[1]; [3]
  optical density reading: 1.55
[2]
  solubility under aqueous conditions: poorly soluble

## zinc-lysine complex
[1]; 0.005 mM active ingredient
  optical density reading: 0.68
[1]; 0.00977 mM active ingredient
  optical density reading: 0.71
[1]; 0.195 mM active ingredient
  optical density reading: 0.69
[1]; 0.391 mM active ingredient
  optical density reading: 0.65
[1]; 0.781 mM active ingredient
  optical density reading: 0.58
[1]; 1.563 mM active ingredient
  optical density reading: 0.44
[1]; 3.125 mM active ingredient
  optical density reading: 0.34
[1]; 6.25 mM active ingredient
  optical density reading: 0.15
[1]; 12.5 mM active ingredient
  optical density reading: 0.20
[1]; 25 mM active ingredient
  optical density reading: 0.35
[1]; [3]
  optical density reading: 0.56
